Test results as given in ChEMBL document CHEMBL1155836, “Discovery of imidazole carboxamides as potent and selective CCK1R agonists” (Bioorg Med Chem Lett, 2008).
Calls of active or inactive are those of the source. The rule behind the calls is not given here.

System: Mus musculus
Assay: Reduction in overnight food intake in lean mouse at 0.3 mg/kg, po
Format: functional
Design: scale not given: the % may be the effect or the level left

Structure (SMILES)	Activity [%]
CCOc1cccc(-n2cc(C(=O)N3CCN(c4cc(C(=O)O)c5ccccc5c4)CC3)nc2-c2ccc(C)cc2F)c1.O=C(O)C(F)(F)F	13
CCOc1cccc(-n2cc(C(=O)N3CCN(c4cc(C(=O)O)c5ccccc5c4)CC3)nc2-c2ccc(C)cc2)c1.O=C(O)C(F)(F)F	18
O=C(O)C(F)(F)F.O=C(O)c1cc(N2CCN(C(=O)c3cn(-c4ccc5c(c4)OCCO5)c(-c4ccc(F)cc4)n3)CC2)cc2ccccc12	16

Molecular target: T1, Cholecystokinin receptor type A (Homo sapiens, UniProt P32238)
T1 sequence (P32238 whole entry): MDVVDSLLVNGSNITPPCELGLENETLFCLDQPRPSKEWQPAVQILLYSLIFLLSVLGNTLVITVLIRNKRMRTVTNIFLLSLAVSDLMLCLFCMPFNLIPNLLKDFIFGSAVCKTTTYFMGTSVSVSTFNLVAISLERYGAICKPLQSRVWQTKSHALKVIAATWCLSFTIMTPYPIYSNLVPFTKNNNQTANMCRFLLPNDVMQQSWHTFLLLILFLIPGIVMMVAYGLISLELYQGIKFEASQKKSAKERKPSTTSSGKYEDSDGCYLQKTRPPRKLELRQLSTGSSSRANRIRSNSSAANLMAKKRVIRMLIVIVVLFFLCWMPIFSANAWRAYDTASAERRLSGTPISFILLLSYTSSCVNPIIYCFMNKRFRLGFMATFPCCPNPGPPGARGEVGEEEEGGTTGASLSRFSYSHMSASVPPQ
Assay: Agonist activity against human CCK1 receptor
Format: functional

EC50 [nM]	Structure (SMILES)
0.12	Cc1ccc(-c2nc(C(=O)N3CCN(c4cnc5ccccc5c4)CC3)cn2-c2ccc3c(c2)OCCO3)cc1
0.053	CCOc1cccc(-n2cc(C(=O)N3CCN(c4cc(C(=O)O)c5ccccc5c4)CC3)nc2-c2ccc(F)cc2F)c1

Molecular target: T2, Gastrin/cholecystokinin type B receptor (Homo sapiens) (UniProt P32239)
T2 sequence (whole entry): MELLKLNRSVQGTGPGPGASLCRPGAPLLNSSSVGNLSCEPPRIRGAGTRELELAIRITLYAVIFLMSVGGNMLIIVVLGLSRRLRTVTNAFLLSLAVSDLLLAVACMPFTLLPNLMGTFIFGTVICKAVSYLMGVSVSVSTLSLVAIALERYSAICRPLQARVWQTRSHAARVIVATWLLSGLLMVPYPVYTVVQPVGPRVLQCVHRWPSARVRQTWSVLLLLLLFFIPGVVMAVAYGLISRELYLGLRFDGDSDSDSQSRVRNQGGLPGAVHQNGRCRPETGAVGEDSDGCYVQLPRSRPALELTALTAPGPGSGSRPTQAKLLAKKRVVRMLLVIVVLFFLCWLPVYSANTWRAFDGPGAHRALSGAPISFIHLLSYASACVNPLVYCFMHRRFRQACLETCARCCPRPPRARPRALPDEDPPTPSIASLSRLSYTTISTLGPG
Assay: Agonist activity against human CCK2 receptor
Format: functional

Activity	Structure (SMILES)
inactive	Cc1ccc(-c2nc(C(=O)N3CCN(c4cnc5ccccc5c4)CC3)cn2-c2ccc3c(c2)OCCO3)cc1
inactive	CCOc1cccc(-n2cc(C(=O)N3CCN(c4cc(C(=O)O)c5ccccc5c4)CC3)nc2-c2ccc(F)cc2F)c1

Molecular target: Cholecystokinin receptor type A (Mus musculus, UniProt O08786)
Sequence (O08786 whole entry, looked up): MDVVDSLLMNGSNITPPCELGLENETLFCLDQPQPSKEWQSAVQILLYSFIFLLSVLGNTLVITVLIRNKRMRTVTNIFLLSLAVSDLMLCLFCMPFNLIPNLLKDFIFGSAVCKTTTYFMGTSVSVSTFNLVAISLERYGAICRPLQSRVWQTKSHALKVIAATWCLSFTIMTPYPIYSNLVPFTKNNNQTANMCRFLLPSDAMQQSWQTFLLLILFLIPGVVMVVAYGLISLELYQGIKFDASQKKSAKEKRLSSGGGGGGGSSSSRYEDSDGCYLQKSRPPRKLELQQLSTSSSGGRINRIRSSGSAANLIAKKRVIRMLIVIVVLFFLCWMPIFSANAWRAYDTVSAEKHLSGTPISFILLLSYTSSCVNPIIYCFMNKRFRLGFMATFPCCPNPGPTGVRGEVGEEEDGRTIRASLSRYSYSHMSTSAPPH
Assay: Agonist activity against mouse CCK1 receptor
Format: functional

EC50 [nM]	Structure (SMILES)
0.3	CCOc1cccc(-n2cc(C(=O)N3CCN(c4cc(C(=O)O)c5ccccc5c4)CC3)nc2-c2ccc(C)cc2F)c1.O=C(O)C(F)(F)F
1.3	CCOc1cccc(-n2cc(C(=O)N3CCN(c4cc(C(=O)O)c5ccccc5c4)CC3)nc2-c2ccc(C)cc2)c1.O=C(O)C(F)(F)F
0.14	O=C(O)C(F)(F)F.O=C(O)c1cc(N2CCN(C(=O)c3cn(-c4ccc5c(c4)OCCO5)c(-c4ccc(F)cc4)n3)CC2)cc2ccccc12

System: Mus musculus
Assay: Gallbladder emptying activity in mouse assessed as reduction of gallbladder weight at 0.001 mg/kg, po
Format: functional
Design: scale not given: the % may be the effect or the level left

Structure (SMILES)	Activity [%]
CCOc1cccc(-n2cc(C(=O)N3CCN(c4cc(C(=O)O)c5ccccc5c4)CC3)nc2-c2ccc(C)cc2F)c1.O=C(O)C(F)(F)F	77
CCOc1cccc(-n2cc(C(=O)N3CCN(c4cc(C(=O)O)c5ccccc5c4)CC3)nc2-c2ccc(C)cc2)c1.O=C(O)C(F)(F)F	72
O=C(O)C(F)(F)F.O=C(O)c1cc(N2CCN(C(=O)c3cn(-c4ccc5c(c4)OCCO5)c(-c4ccc(F)cc4)n3)CC2)cc2ccccc12	88

Molecular target: T3, Cholecystokinin receptor type A (Homo sapiens) (UniProt P32238)
T3 sequence (whole entry): T1 sequence (P32238 whole entry)
Assay: Agonist activity against human CCK1 receptor assessed as receptor activation at 10000 nM
Format: functional

Activity [%]	Structure (SMILES)
94	Cc1ccc(-c2nc(C(=O)N3CCN(c4cnc5ccccc5c4)CC3)cn2-c2ccc3c(c2)OCCO3)cc1
76	CCOc1cccc(-n2cc(C(=O)N3CCN(c4cc(C(=O)O)c5ccccc5c4)CC3)nc2-c2ccc(F)cc2F)c1

System: Mus musculus
Assay: Reduction in overnight food intake in lean mouse at 3 mg/kg, po
Format: functional
Design: scale not given: the % may be the effect or the level left

Structure (SMILES)	Activity [%]
CCOc1cccc(-n2cc(C(=O)N3CCN(c4cc(C(=O)O)c5ccccc5c4)CC3)nc2-c2ccc(C)cc2F)c1.O=C(O)C(F)(F)F	86
CCOc1cccc(-n2cc(C(=O)N3CCN(c4cc(C(=O)O)c5ccccc5c4)CC3)nc2-c2ccc(C)cc2)c1.O=C(O)C(F)(F)F	82
O=C(O)C(F)(F)F.O=C(O)c1cc(N2CCN(C(=O)c3cn(-c4ccc5c(c4)OCCO5)c(-c4ccc(F)cc4)n3)CC2)cc2ccccc12	96

Molecular target: T4, Gastrin/cholecystokinin type B receptor (Homo sapiens, UniProt P32239)
T4 sequence (P32239 whole entry): T2 sequence (whole entry)
Assay: Inhibition of human CCK2 receptor

IC50 [nM]	Structure (SMILES)
> 10000	Cc1ccc(-c2nc(C(=O)N3CCN(c4cnc5ccccc5c4)CC3)cn2-c2ccc3c(c2)OCCO3)cc1
> 10000	CCOc1cccc(-n2cc(C(=O)N3CCN(c4cc(C(=O)O)c5ccccc5c4)CC3)nc2-c2ccc(F)cc2F)c1

Molecular target: T1, Cholecystokinin receptor type A
Assay: Inhibition of human CCK1 receptor

IC50 [nM]	Structure (SMILES)
0.2	Cc1ccc(-c2nc(C(=O)N3CCN(c4cnc5ccccc5c4)CC3)cn2-c2ccc3c(c2)OCCO3)cc1
0.07	CCOc1cccc(-n2cc(C(=O)N3CCN(c4cc(C(=O)O)c5ccccc5c4)CC3)nc2-c2ccc(F)cc2F)c1

Molecular target: T2, Gastrin/cholecystokinin type B receptor (Homo sapiens)
Assay: Agonist activity against human CCK2 receptor assessed as receptor activation at 10000 nM
Format: functional

Activity [%]	Structure (SMILES)
< 36	Cc1ccc(-c2nc(C(=O)N3CCN(c4cnc5ccccc5c4)CC3)cn2-c2ccc3c(c2)OCCO3)cc1
< 36	CCOc1cccc(-n2cc(C(=O)N3CCN(c4cc(C(=O)O)c5ccccc5c4)CC3)nc2-c2ccc(F)cc2F)c1

Molecular target: T2, Gastrin/cholecystokinin type B receptor (Homo sapiens)
Assay: Inhibition of human CCK2 receptor at 10000 nM

inhibition [%]	Structure (SMILES)
< 24	Cc1ccc(-c2nc(C(=O)N3CCN(c4cnc5ccccc5c4)CC3)cn2-c2ccc3c(c2)OCCO3)cc1
< 24	CCOc1cccc(-n2cc(C(=O)N3CCN(c4cc(C(=O)O)c5ccccc5c4)CC3)nc2-c2ccc(F)cc2F)c1
